Assay results published in patent publication US11273166B2, “Methods and compositions for the treatment of obesity” (Monash University, priority 2017, dated 2022).

How the values were obtained:
[1] = molecular target: T1, PTP1B in the arcuate nucleus of the hypothalamus (Mus musculus, UniProt P35821); assay: Celastrol i.p. for 10 days in high fat fed Ptpn1fl/fl mice, rAAV-Cre-eGFP vs rAAV-eGFP in ARC; type: in vivo; details: mice lacking PTP1B in the ARC; 20 μg/ml i.p., 10 consecutive days
T1 construct: endogenous in cells; host or cells: arcuate nucleus of the hypothalamus of living high fat fed Ptpn1fl/fl mice
T1 sequence (P35821 1-432): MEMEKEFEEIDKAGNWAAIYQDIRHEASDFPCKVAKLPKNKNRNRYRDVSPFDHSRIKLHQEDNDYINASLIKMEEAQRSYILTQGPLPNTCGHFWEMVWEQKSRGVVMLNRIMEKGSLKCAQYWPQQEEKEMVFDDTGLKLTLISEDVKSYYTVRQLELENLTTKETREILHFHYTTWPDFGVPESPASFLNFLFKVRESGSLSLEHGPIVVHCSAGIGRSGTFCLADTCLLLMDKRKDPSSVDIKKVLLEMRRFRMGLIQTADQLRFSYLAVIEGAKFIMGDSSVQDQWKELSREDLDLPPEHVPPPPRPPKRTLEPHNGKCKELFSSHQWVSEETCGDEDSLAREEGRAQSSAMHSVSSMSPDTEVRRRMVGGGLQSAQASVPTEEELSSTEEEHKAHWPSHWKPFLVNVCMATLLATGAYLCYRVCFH
Experimental: FIG. 30. […] 12-week high fat fed Ptpn1^fl/fl male mice were bilateral injected with rAAV-eGFP or rAAV-Cre-eGFP into the arcuate nucleus of the hypothalamus (ARC). Two-week post AAV administration mice received Celastrol (20 μg/ml, i.p.) for 10 consecutive days and effects on a-b) Body weights, c-d) food intake, e-f) adiposity and lean mass (EchoMRI) was determined.

[2] = molecular target: T2, TCPTP in the arcuate nucleus of the hypothalamus (Mus musculus, UniProt Q06180); assay: Celastrol i.p. for 10 days in high fat fed Ptpn2fl/fl mice, rAAV-Cre-eGFP vs rAAV-eGFP in ARC; type: in vivo; details: mice lacking TCPTP in the ARC; 20 ug/ml i.p., 10 consecutive days
T2 construct: endogenous in cells; host or cells: arcuate nucleus of the hypothalamus of living high fat fed Ptpn2fl/fl mice
T2 sequence (Q06180 1-406): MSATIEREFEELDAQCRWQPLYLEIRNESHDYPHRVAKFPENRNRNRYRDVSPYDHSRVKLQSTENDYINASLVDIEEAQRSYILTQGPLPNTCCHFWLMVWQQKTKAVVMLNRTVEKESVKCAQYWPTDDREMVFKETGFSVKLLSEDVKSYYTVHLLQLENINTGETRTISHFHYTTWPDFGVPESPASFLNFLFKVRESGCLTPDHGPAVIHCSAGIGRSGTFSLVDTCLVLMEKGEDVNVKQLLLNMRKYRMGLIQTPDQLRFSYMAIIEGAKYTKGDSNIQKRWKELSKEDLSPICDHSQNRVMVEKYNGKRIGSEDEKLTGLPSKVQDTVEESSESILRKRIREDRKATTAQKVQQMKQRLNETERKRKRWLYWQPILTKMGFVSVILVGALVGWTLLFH
Experimental: 12-week high fat fed Ptpn2^fl/fl male mice were bilateral injected with rAAV-eGFP or rAAV-Cre-eGFP into the arcuate nucleus of the hypothalamus (ARC). Two-week post AAV administration mice received Celastrol (20 ug/ml, i.p.) for 10 consecutive days and effects on a-b) Body weights, b-c) food intake, e-f) adiposity and lean mass (EchoMRI) was determined.

[3] = system: PTP1B and TCPTP in the arcuate nucleus of the hypothalamus; assay: Celastrol i.p. for 10 days in high fat fed Ptpn1fl/fl: Ptpn2fl/fl mice, rAAV-Cre-eGFP vs rAAV-eGFP in ARC; type: in vivo, mouse; details: mice lacking PTP1B and TCPTP in the ARC; 20 μg/ml i.p., 10 consecutive days
Experimental: FIG. 28 The ability of celastrol to promote weight loss in obese mice is abrogated in mice lacking PTP1B and TCPTP in the arcuate nucleus of the hypothalamus. 12-week high fat fed Ptpn1^fl/fl: Ptpn2^fl/fl male mice were bilateral injected with rAAV-eGFP or rAAV-Cre-eGFP into the arcuate nucleus of the hypothalamus (ARC). Two-week post AAV administration mice received Celastrol (20 μg/ml, i.p.) for 10 consecutive days and effects on a) Body weights, b) food intake, c-d) adiposity and lean mass (EchoMRI) was determined

CC1=C(O)C(=O)C=C2C1=CC=C1[C@@]2(C)CC[C@@]2(C)[C@@H]3C[C@](C)(C(=O)O)CC[C@]3(C)CC[C@]12C [celastrol]
ability to promote weight loss in obese mice [1]: partially attenuated
ability to promote weight loss in obese mice [2]: partially attenuated
ability to promote weight loss in obese mice [3]: abrogated
